Where a SMILES comes first, the peptide text is derived from it. Bridges are numbered along the chain shown (N, C = ends). [ ]: non-standard residue; d: D form. hPhe(3-Cl-4-CF3) = N[C@@H](CCc1ccc(C(F)(F)F)c(Cl)c1)C(=O)O; NPrPhe(4-CF3) = CCCN[C@@H](Cc1ccc(C(F)(F)F)cc1)C(=O)O; NMeGly(cPent) = CN[C@H](C(=O)O)C1CCCC1; Pro(4,4-F2) = O=C(O)[C@@H]1CC(F)(F)CN1; Hyp = O=C(O)[C@@H]1C[C@@H](O)CN1; NMeL = CN[C@@H](CC(C)C)C(=O)O; NMeA = CN[C@@H](C)C(=O)O; Ac5c = NC1(C(=O)O)CCCC1; Aze = O=C(O)[C@@H]1CCN1; Ac4c = NC1(C(=O)O)CCC1; Sar = CNCC(=O)O
What was measured:
[1] = target: GDP-bound NRAS wild-type protein (Homo sapiens, UniProt P01111); test: Binding to NRAS by surface plasmon resonance (SPR), Single Cycle Kinetics; details: KD ratio NRAS/KRAS, SPR
GDP-bound NRAS wild-type protein, sequence (P01111 whole entry): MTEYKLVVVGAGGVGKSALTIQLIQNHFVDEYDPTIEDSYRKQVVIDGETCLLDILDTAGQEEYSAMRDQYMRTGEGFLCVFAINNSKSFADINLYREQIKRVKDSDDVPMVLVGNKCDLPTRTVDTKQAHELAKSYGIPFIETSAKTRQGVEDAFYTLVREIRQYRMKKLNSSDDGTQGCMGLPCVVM

[2] = target: GDP-bound HRAS wild-type protein (Homo sapiens, UniProt P01112); test: Binding to HRAS by surface plasmon resonance (SPR), Single Cycle Kinetics; details: KD ratio HRAS/KRAS, SPR
GDP-bound HRAS wild-type protein, sequence (P01112 whole entry): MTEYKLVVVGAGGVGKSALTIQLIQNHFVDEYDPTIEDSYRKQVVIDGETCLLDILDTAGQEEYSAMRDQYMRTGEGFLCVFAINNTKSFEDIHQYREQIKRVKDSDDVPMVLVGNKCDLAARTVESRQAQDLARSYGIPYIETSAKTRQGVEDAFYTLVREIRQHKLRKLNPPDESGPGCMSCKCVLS

With `CCCN1C(=O)CN(C)C(=O)[C@@H]2CCN2C(=O)[C@H]([C@@H](C)CC)NC(=O)[C@H](CC(C)C)N(C)C(=O)C[C@@H](C(=O)N(C)C)NC(=O)[C@H](C2CCCC2)N(C)C(=O)C2(CCC2)NC(=O)[C@@H]2CC(F)(F)CN2C(=O)[C@H](CCc2ccc(C(F)(F)F)c(Cl)c2)NC(=O)CN(C)C(=O)[C@@H]1Cc1ccc(C(F)(F)F)cc1` [PP0376] ([NMeL]I[Aze][Sar][NPrPhe(4-CF3)][Sar][hPhe(3-Cl-4-CF3)][Pro(4,4-F2)][Ac4c][NMeGly(cPent)]D-NMe2; lactam N-11) the “NRAS/KRAS (ratio of KD for GDP-bound NRAS wild-type to KD for KRAS)” value [1] was “B (a compound having 3 or more and less than 10 is denoted as B)” and the “HRAS/KRAS (ratio of KD for GDP-bound HRAS wild-type to KD for KRAS)” value [2] was “B (a compound having 3 or more and less than 10 is denoted as B)”.
For `CCCN1C(=O)CN(C)C(=O)[C@@H]2CCN2C(=O)[C@H]([C@@H](C)CC)NC(=O)[C@H](CC(C)C)N(C)C(=O)C[C@@H](C(=O)N(C)C)NC(=O)[C@H](C2CCCC2)N(C)C(=O)C2(CCCC2)NC(=O)[C@@H]2C[C@@H](OCC)CN2C(=O)[C@H](CCc2ccc(C(F)(F)F)c(Cl)c2)NC(=O)CN(C)C(=O)[C@@H]1Cc1ccc(C(F)(F)F)cc1` [PP0377] ([NMeL]I[Aze][Sar][NPrPhe(4-CF3)][Sar][hPhe(3-Cl-4-CF3)][Hyp](Et)[Ac5c][NMeGly(cPent)]D-NMe2; lactam N-11), the “NRAS/KRAS (ratio of KD for GDP-bound NRAS wild-type to KD for KRAS)” value [1] was “B (a compound having 3 or more and less than 10 is denoted as B)” and the “HRAS/KRAS (ratio of KD for GDP-bound HRAS wild-type to KD for KRAS)” value [2] was “C (A compound having a KD ratio of 0.1 or more and less than 3 is denoted as C)”.
For `CCCN1C(=O)CN(C)C(=O)[C@@H]2CCN2C(=O)[C@H]([C@@H](C)CC)NC(=O)[C@H](CC(C)C)N(C)C(=O)C[C@@H](C(=O)N(C)C)NC(=O)[C@H](C2CCCC2)N(C)C(=O)C2(CCC2)NC(=O)[C@@H]2C[C@@H](OCC)CN2C(=O)[C@H](CCc2ccc(C(F)(F)F)c(Cl)c2)NC(=O)CN(C)C(=O)[C@@H]1Cc1ccc(C(F)(F)F)cc1` [PP0378] ([NMeL]I[Aze][Sar][NPrPhe(4-CF3)][Sar][hPhe(3-Cl-4-CF3)][Hyp](Et)[Ac4c][NMeGly(cPent)]D-NMe2; lactam N-11), the “NRAS/KRAS (ratio of KD for GDP-bound NRAS wild-type to KD for KRAS)” value [1] was “B (a compound having 3 or more and less than 10 is denoted as B)” and the “HRAS/KRAS (ratio of KD for GDP-bound HRAS wild-type to KD for KRAS)” value [2] was “B (a compound having 3 or more and less than 10 is denoted as B)”.
With `CCCN1C(=O)[C@@H]2CCN2C(=O)[C@H](C)N(C)C(=O)[C@H]([C@@H](C)CC)NC(=O)[C@H](CC(C)C)N(C)C(=O)C[C@@H](C(=O)N(C)C)NC(=O)[C@H](C2CCCC2)N(C)C(=O)C2(CCCC2)NC(=O)[C@@H]2CCCN2C(=O)[C@H](CCc2ccc(C(F)(F)F)c(Cl)c2)NC(=O)CN(C)C(=O)[C@@H]1Cc1ccc(C(F)(F)F)cc1` [PP0379] ([NMeL]I[NMeA][Aze][NPrPhe(4-CF3)][Sar][hPhe(3-Cl-4-CF3)]P[Ac5c][NMeGly(cPent)]D-NMe2; lactam N-11) the “NRAS/KRAS (ratio of KD for GDP-bound NRAS wild-type to KD for KRAS)” value [1] was “C (A compound having a KD ratio of 0.1 or more and less than 3 is denoted as C)” and the “HRAS/KRAS (ratio of KD for GDP-bound HRAS wild-type to KD for KRAS)” value [2] was “B (a compound having 3 or more and less than 10 is denoted as B)”.
In the case of `CCCN1C(=O)[C@@H]2CCN2C(=O)[C@H](C)N(C)C(=O)[C@H]([C@@H](C)CC)NC(=O)[C@H](CC(C)C)N(C)C(=O)C[C@@H](C(=O)N(C)C)NC(=O)[C@H](C2CCCC2)N(C)C(=O)C2(CCC2)NC(=O)[C@@H]2CCCN2C(=O)[C@H](CCc2ccc(C(F)(F)F)c(Cl)c2)NC(=O)CN(C)C(=O)[C@@H]1Cc1ccc(C(F)(F)F)cc1` [PP0380] ([NMeL]I[NMeA][Aze][NPrPhe(4-CF3)][Sar][hPhe(3-Cl-4-CF3)]P[Ac4c][NMeGly(cPent)]D-NMe2; lactam N-11), the “NRAS/KRAS (ratio of KD for GDP-bound NRAS wild-type to KD for KRAS)” value [1] is reported as “C (A compound having a KD ratio of 0.1 or more and less than 3 is denoted as C)” and the “HRAS/KRAS (ratio of KD for GDP-bound HRAS wild-type to KD for KRAS)” value [2] is reported as “B (a compound having 3 or more and less than 10 is denoted as B)”.
With `CCCN1C(=O)[C@@H]2CCN2C(=O)[C@H](C)N(C)C(=O)[C@H]([C@@H](C)CC)NC(=O)[C@H](CC(C)C)N(C)C(=O)C[C@@H](C(=O)N(C)C)NC(=O)[C@H](C2CCCC2)N(C)C(=O)C2(CCCC2)NC(=O)[C@@H]2CC(F)(F)CN2C(=O)[C@H](CCc2ccc(C(F)(F)F)c(Cl)c2)NC(=O)CN(C)C(=O)[C@@H]1Cc1ccc(C(F)(F)F)cc1` [PP0381] ([NMeL]I[NMeA][Aze][NPrPhe(4-CF3)][Sar][hPhe(3-Cl-4-CF3)][Pro(4,4-F2)][Ac5c][NMeGly(cPent)]D-NMe2; lactam N-11) the “NRAS/KRAS (ratio of KD for GDP-bound NRAS wild-type to KD for KRAS)” value [1] was “C (A compound having a KD ratio of 0.1 or more and less than 3 is denoted as C)” and the “HRAS/KRAS (ratio of KD for GDP-bound HRAS wild-type to KD for KRAS)” value [2] was “B (a compound having 3 or more and less than 10 is denoted as B)”.
For `CCCN1C(=O)[C@@H]2CCN2C(=O)[C@H](C)N(C)C(=O)[C@H]([C@@H](C)CC)NC(=O)[C@H](CC(C)C)N(C)C(=O)C[C@@H](C(=O)N(C)C)NC(=O)[C@H](C2CCCC2)N(C)C(=O)C2(CCC2)NC(=O)[C@@H]2CC(F)(F)CN2C(=O)[C@H](CCc2ccc(C(F)(F)F)c(Cl)c2)NC(=O)CN(C)C(=O)[C@@H]1Cc1ccc(C(F)(F)F)cc1` [PP0382] ([NMeL]I[NMeA][Aze][NPrPhe(4-CF3)][Sar][hPhe(3-Cl-4-CF3)][Pro(4,4-F2)][Ac4c][NMeGly(cPent)]D-NMe2; lactam N-11), the “NRAS/KRAS (ratio of KD for GDP-bound NRAS wild-type to KD for KRAS)” value [1] was “C (A compound having a KD ratio of 0.1 or more and less than 3 is denoted as C)” and the “HRAS/KRAS (ratio of KD for GDP-bound HRAS wild-type to KD for KRAS)” value [2] was “B (a compound having 3 or more and less than 10 is denoted as B)”.

Source: patent US20250230193A1, “CYCLIC COMPOUND HAVING SELECTIVE KRAS INHIBITORY EFFECT ON HRAS AND NRAS” (CHUGAI SEIYAKU KABUSHIKI KAISHA, priority 2022, published 2025)
